Measured values from PMC8459971, “Evaluation of the hepatotoxicity of the novel GPR40 (FFAR1) agonist CPL207280 in the rat and monkey” (PLoS ONE, 2021).
Values joined by “and” are separate entries in the source; they are usually repeats but may differ in a detail not shown here. Equal entries are not always repeated.

Key:
[1] = Stability in cryopreserved hepatocytes, mouse; assay type: in vitro ADME; conditions: for Compound Remaining (% of 0 min): Hepatocyte Stability Mouse, single replicates
Procedure: The final incubation volume was 500 μL. Two control compounds (verapamil and donepezil) were included for each microsomal species, along with the appropriate vehicle control. The reactions were terminated by transferring 50 μL of incubate to 100 μL methanol containing an internal standard (metoprolol) at appropriate time points (0, 10, 20, 40, 60, and 120 min for the test compound and 0, 5, 10, 20, 40, and 60 min for the control compounds). The termination plates were centrifuged at 4000 x g at 4°C for 30 min to precipitate the protein. The supernatants were then collected for analysis, and LC-MS/MS was used for detection purposes. The system consisted of an Acquity™ Binary Solvent Manager, Acquity™ 4-position heated column manager, 2777 Ultra High Pressure Autosampler, and a Xevo-TQ MS triple quadrupole mass spectrometer (Waters Ltd., Herts, UK). This process was carried out twice.

[2] = Metabolite profiling, human hepatocytes; assay type: in vitro ADME
Procedure: (§1) Suspensions of cryopreserved human, rat, and monkey hepatocytes were pooled from a minimum of three individuals. All cryopreserved hepatocytes were purchased from a commercial supplier. […] The cell density was 0.5 ×10^6 viable cells/mL. The final DMSO concentration during the incubation was 0.25%. Control incubations were performed in lysed cells to reveal any non-enzymatic degradation. Two control compounds were identified in each species. Samples (50 μL) were removed from the incubation mixture at 0, 10, 20, 40, 60, and 120 min and added to methanol containing an internal standard (100 μL) to stop the reaction. The samples were centrifuged (4000 x g at 4°C for 30 min) and the supernatants at each time point were pooled for analysis by LC MS/MS using Cyprotex generic methods. Following hepatocyte stability assays, the samples were utilized for metabolite profiling. […] Metabolites were characterized using a mass spectrometer comprising Waters Xevo QT of G2-S, Acquity Binary Solvent Manager, Acquity Column Manager, and 2777 Autosampler.

[3] = Metabolite profiling, monkey hepatocytes; assay type: in vitro ADME; conditions: 10 μM CPL207280, 60 min, ND = not detected
Procedure: as §1

[4] = Repeat-dose study in diabetic ZDF rats, serum ALT and AST; assay type: in vivo, rat; conditions: 15 and 45 mg/kg/day, 42 days
Source text: Male ZDF rats (n = 8) and ZL rats (n = 8) were aged 9 weeks and were housed 2–3 per cage within a small animal facility in accordance with the guidelines approved by the Association for Assessment and Accreditation of Laboratory Animal Care. […] All animals had ad libitum access to water during the entire study period. The animals were fed a diet of Purina Rodent LabDiet 5C08, equivalent to LabDiet 5008. Treatment-grouped rats (N = 8) underwent oral gavage with the test compound or vehicle at 10 mL/kg for 6 weeks. For fasting blood levels of ALT and AST after overnight fasting, blood was collected from the jugular vein or through a cardiac puncture (on the day of euthanasia, the last day of the study). Blood was collected in AXYGEN microtubes (MCT-150-C) for clinical blood chemistry measurements. Next, the sample was allowed to clot for a minimum of 30 min at room temperature and then centrifuged at 4°C and 4000 x g for 10 min. The resultant serum was transferred into three pre-labeled AXYGEN microtubes for blood chemistry analysis using the ADVIA 2400 chemistry system. Rats were euthanized by overdose of CO2 followed by decapitation.

[5] = Repeat-dose study in diabetic cynomolgus monkeys, serum ALT and AST; assay type: in vivo; conditions: 2.2 and 22 mg/kg, 28 treatment days
Source text: All animals aged 8–20 years had ad libitum access to water and were fed twice daily with a complete nutritionally balanced diet (Beijing Keao Xieli Feed Co., LTD, Beijing, China) enriched with seasonal fruits. The cynomolgus monkeys used in the study were cared for and handled in accordance with all applicable Association for Assessment and Accreditation of Laboratory Animal Care regulations and guidelines. […] After each treatment (weighing, bleeding, or dosing), the animals were clinically observed on the day of the procedure and, if previously anesthetized, the animals were monitored to stand up and alert. Nine selected diabetic animals were subjected to daily test compound (powder) dosing via natural feeding with bananas (n = 3). Blood from overnight-fasted animals was collected weekly in the morning for measurement of serum ALT and AST levels on days 0, 7, 14, 21, 28, and 35. Blood samples (1.5 mL) were collected from a cephalic or saphenous vein into BD Vacutainer® and K2-EDTA tubes.

[6] = target: BSEP (Homo sapiens, UniProt O95342); experiment: in vitro; conditions: membrane vesicle preparations (BSEP)
[7] = 600 mg/kg for 14 days; cited from earlier work
[8] = phase III studies, within six months; cited from earlier work
[9] = cryopreserved hepatocytes (suspension), Mouse (CD) hepatocytes, mean n = 2

Chain of BSEP (O95342 whole entry): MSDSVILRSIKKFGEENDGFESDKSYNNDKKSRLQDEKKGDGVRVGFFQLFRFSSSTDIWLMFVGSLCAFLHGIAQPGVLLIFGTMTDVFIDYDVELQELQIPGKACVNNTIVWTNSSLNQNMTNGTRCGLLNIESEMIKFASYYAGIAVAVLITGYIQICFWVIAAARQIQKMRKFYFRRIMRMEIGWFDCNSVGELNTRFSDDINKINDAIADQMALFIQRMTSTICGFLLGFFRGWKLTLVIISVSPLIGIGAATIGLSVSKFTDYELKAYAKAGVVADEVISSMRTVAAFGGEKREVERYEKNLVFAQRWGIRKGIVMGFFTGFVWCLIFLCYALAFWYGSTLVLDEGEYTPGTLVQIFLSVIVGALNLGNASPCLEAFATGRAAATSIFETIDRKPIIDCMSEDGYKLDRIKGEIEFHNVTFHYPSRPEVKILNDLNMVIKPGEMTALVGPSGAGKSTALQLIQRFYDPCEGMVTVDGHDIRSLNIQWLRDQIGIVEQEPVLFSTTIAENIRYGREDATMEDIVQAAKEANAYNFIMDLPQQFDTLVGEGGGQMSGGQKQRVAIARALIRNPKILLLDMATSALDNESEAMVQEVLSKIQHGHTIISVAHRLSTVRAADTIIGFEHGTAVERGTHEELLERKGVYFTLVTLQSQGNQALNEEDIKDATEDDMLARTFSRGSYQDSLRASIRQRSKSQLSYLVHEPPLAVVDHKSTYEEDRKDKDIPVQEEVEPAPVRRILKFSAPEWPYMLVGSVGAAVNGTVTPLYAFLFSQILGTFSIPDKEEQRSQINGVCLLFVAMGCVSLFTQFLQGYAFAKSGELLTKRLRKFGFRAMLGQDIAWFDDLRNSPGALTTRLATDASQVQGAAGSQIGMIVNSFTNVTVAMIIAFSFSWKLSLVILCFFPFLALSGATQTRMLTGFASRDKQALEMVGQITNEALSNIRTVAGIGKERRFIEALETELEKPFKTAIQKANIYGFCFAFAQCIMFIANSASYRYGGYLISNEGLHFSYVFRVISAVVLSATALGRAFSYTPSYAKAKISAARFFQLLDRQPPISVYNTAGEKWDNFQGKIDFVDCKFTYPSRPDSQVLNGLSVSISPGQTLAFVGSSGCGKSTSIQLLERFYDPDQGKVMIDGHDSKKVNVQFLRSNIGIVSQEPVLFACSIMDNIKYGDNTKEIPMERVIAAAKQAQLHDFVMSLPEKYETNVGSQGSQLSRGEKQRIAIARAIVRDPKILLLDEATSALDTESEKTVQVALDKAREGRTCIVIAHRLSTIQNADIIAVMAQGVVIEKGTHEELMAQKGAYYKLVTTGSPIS

| Structure (SMILES) | Compound Remaining (% of 0 min) ([1]; 0 min) | Compound Remaining (% of 0 min) ([1]; 10 min) | Compound Remaining (% of 0 min) ([1]; 20 min) | Compound Remaining (% of 0 min) ([1]; 40 min) | Compound Remaining (% of 0 min) ([1]; 60 min) | Compound Remaining (% of 0 min) ([1]; 120 min) | half-life at 3 μM [1, 9] | microsomal CLint at 3 μM [1, 9] | number of metabolites produced by human hepatocytes ([2]; human hepatocytes, 10 μM) | human % of parent at 60 min ([2]; human hepatocytes, 10 μM CPL207280, 60 min, ND = not detected) | number of metabolites identified ([2]; in all species (humans, rats, mice, monkeys, dogs), hepatocytes, 10 μM) | Acyl glucuronide presence in human hepatocytes ([2]; summary table) | monkey % of parent at 60 min [3] | ALT and AST levels vs vehicle-treated ZDF group [4] | liver safety markers (ALT, AST) vs vehicle group [5] | IC50 [6] | effect on ALT, TBA, T-BIL in dogs [7] | study participants with serum ALT elevations > 3 × ULN [8] |
| --- | --- | --- | --- | --- | --- | --- | --- | --- | --- | --- | --- | --- | --- | --- | --- | --- | --- | --- |
| CC#C[C@@H](CC(=O)O)c1ccc(OCC(C)=C(C)C)cc1 [CPL207280] | 100 % of 0 min | 92.6 % of 0 min and 92.7 % of 0 min | 92.0 % of 0 min and 89.0 % of 0 min | 86.8 % of 0 min and 80.9 % of 0 min | 79.1 % of 0 min and 85.2 % of 0 min | 81.9 % of 0 min and 77.1 % of 0 min | 6.73 h | 3.46 µL/min/mg | 12 | 8.49% | 23 | No | 7.25% | failed to alter the ALT and AST levels | none of the doses altered liver safety markers | > 100 µM |  |  |
| Cc1cc(OCCCS(C)(=O)=O)cc(C)c1-c1cccc(COc2ccc3c(c2)OC[C@H]3CC(=O)O)c1 [TAK-875, fasiglifam, reference compound] |  |  |  |  |  |  |  |  |  |  |  |  |  |  |  |  | observed in only 2 of 6 animals | 2.7% |
